Measured values: patent US11149006B2, “Compounds as neurokinin-1 receptor antagonists and uses thereof” (XW LABORATORIES INC., priority 2018, dated 2021)
pIC50: −log10 of the molar value.

What was measured:
[1] = target: human NK-2 receptor (NK-2/HEK293) (Homo sapiens (Human), UniProt P21452); test: NK-2 calcium flux FLIPR antagonist assay; assay type: cell-based; details: for inhibition at 10 µM: HEK293, NK-2, max dose 10000 nM; for pIC50: NK-2 FLIPR antagonist mode
Protocol: (§1) The potential antagonist activity of Compound I and IV on human NK-1/2/3 receptor was evaluated by calcium flux FLIPR assay. The results are shown in the following Table 2, while the NK-1 fitting dose-response curves for Compound I and IV are shown in FIGS. 2A and 2B, respectively.
(§2) 1. NK-1, NK-2 and NK-3 Calcium Flux FLIPR assays:
(§3) Materials: Cell Lines: NK-1/HEK293, NK-2/HEK293, NK-3/HEK293. Media: DMEM, Invitrogen (Cat #11960), FBS, Corning (Cat #35-076-CV), G418, Invitrogen (Cat #10131-027), and Blasticidin, Invitrogen (Cat #A11139). Reagent: Fluo-4 Direct, (Invitrogen, Cat #F10471).
(§4) Experimental procedure for NK-1, NK-2 and NK-3 calcium flux FLIPR assay: Perform the assay in the following steps: 1) Cell preparation: thaw each cell (NK-1, NK-2 and NK-3) in 37° C. water bath with gentle shaking, transfer cell suspensions to 50 mL conical tubes and add plating media to 45 mL mark. Count cells using a ViCell for concentration. Re-suspend the cells in the growth media to a concentration of 10×10^5 per mL. Add 20 μL per well of the cell suspension to the 384-well plates (20,000 cells/well). Place the cells at 37° C. 5% CO2 incubator overnight. 2) Calcium Flux FLIPR assay: a) Prepare Probenecid reagent by adding 1 mL FLIPR Assay Buffer to 77 mg probenecid to make 250 mM solution. b) Prepare assay reagent (2×8 μM Fluo-4 Direct™ Loading Buffer): Thaw one vial of Fluo-4 Direct™ crystals, add 10 mL of FLIPR Assay Buffer to the Vial; add 0.2 mL of Probenecid to each 10 mL vial of Fluo-Direct. c) Compounds preparation: The compounds are serially diluted in 100% DMSO 1:3 for 10 pts by Echo. Then dispense 900 nL of compounds to the 384-compound plate. Remove cell plate from incubator and gently dispense 20 μL of 2×Fluo-4 Direct™ to 384 well cell culture plate. Incubate for 50 min at 37° C. 5% CO2 and 10 min at room temperature. Remove cell plate from incubator and place it into FLIPR (Molecular Devices). Place compound plate and tip box into FLIPR. For the dose response curve (DRC) plate: a) Run the Protocol on FLIPRTETRA. b) Transfer 10 μL of assay buffer from 384-well plate to the cell plates. c) Read fluorescence signal. d) Transfer 10 μL of the compounds from the DRC plate to the cell plates. e) Read fluorescence signal. f) Calculate the “Max-Min” starting from Read 90 to Maximum allowed. […] For the compound plate in antagonist test: a) Run the Protocol on FLIPRTETRA. b) Transfer 10 μL of references and compounds from the compound plate to the cell plates. c) Read fluorescence signal. d) Transfer 10 μL of 6×EC80 concentrations of agonist reference compounds to the cell plates. e) Read fluorescence signal. f) For antagonist test, calculate the “Max-Min” starting from Read 90 to Maximum allowed. h) Analyze the data using GraphPad Prism 5.0.

[2] = target: human NK-1 receptor (NK-1/HEK293) (Homo sapiens (Human), UniProt P25103); test: NK-1 calcium flux FLIPR antagonist assay; assay type: cell-based; details: for inhibition at 10 µM: HEK293, NK-1, max dose 10000 nM; for pIC50: NK-1 FLIPR antagonist mode
Protocol: as §1, §2, §3, §4

[3] = system: cisplatin-induced emesis in ferrets; test: Cisplatin-induced acute and delayed emesis in the ferret; assay type: in vivo; details: for reduction of retching+vomiting, entire delayed phase: delayed phase 24-72 h
Protocol: To investigate the anti-emetic potential of Compound I by preventing cisplatin-induced acute and delayed emesis in the ferret. Aprepitant was used as a positive control in this study.
40 castrated male ferrets weighing between 1.2 and 2.3 kg were used, which were obtained from Wuxi Sangosho Biotechnology Co. Ltd. (Wuxi, Jiangsu, China) and housed in groups of 2-3 at 24±1° C. with at 50±5% humidity. Artificial lighting was provided between 06:00 to 18:00 h. Water and dry pelleted cat chow were given ad libitum, unless otherwise stated. All experiments were conducted under license from the Government of the Hong Kong SAR and the Animal Experimentation Ethics Committee, The Chinese University of Hong Kong.
Compound I and aprepitant were supplied by XW Laboratories, Inc, China and were dissolved in distilled water. Cisplatin (Lot #MKBR1947V) was from Sigma-Aldrich, St. Louis, USA, and was dissolved in 0.9% w/v saline adjusted to pH 4 with 0.1N HCl. Doses were expressed as the free base, unless otherwise stated.
On the day of the experiment, groups of ferrets were administered Compound I (0.1, 0.3, 1 mg/kg, p.o.), aprepitant (1 mg/kg, p.o.), or distilled water (vehicle control, 1 mL/kg, p.o.) 2 h before cisplatin (5 mg/kg, i.p.) and then the treatments were continued at 24 h intervals (at 24 and 48 h post cisplatin). Emesis was characterized by rhythmic abdominal contractions that were either associated with the forceful oral expulsion of solid or liquid material from the gastrointestinal tract (i.e., vomiting), or not associated with the passage of material (i.e., retching movements). Consecutive episodes of retching and/or vomiting were considered separate when the animal changed its location in the observation cage, or when the interval between episodes exceeded 5 seconds.
GraphPad Prism 8 (GraphPad Software, La Jolla, Calif., United States) was used to perform statistical comparisons. Animal emesis behaviours like retching and vomiting were analyzed using a one-way analysis of variance followed by Tukey's multiple comparisons tests. The results are expressed as the mean±SEM. In all cases, differences between treatment groups were considered significant when the p value was less than 0.05.

human NK-1 receptor = human NK-1 receptor (Homo sapiens (Human), UniProt P25103); test: Tag-Lite Tachykinin NK-1 receptor competitive binding assay (TR-FRET); details: Tag-Lite NK-1 labeled cells, read-out: IC50 on hNK-1 receptor
Protocol: Human Tachykinin NK-1 receptor binding assay was performed using CisBio's Tag-Lite® Ligand binding assay. The homogeneous binding assay employees the time resolved fluorescence energy transfer (TR-FRET) technology. The potential inhibitory effect of Compound I and V on human NK-1 receptor was evaluated by TagLite® Tachykinin NK-1 receptor binding assay.
1. Tag-Lite® Tachykinin NK-1 receptor binding assay.
Materials: Tag-Lite® Tachykinin NK-1 labeled Cells, Tachykinin NK-1 Receptor red agonist Fluorescent Ligand (10 μMx50 μL), Tag-Lite Buffer (TLB) (5×concentration) (CisBio, Redford, Mass., U.S.A). [Sar9, Met(O2)11]-Substance P-Polypeptides (Tocris, Bristol, UK).
2. Competitive binding (Ki determination): Competitive binding assay measures the dissociation constant, To perform the assay, the compound is titrated into a solution containing a fixed concentration of fluorescent ligand and a fixed amount of cells.
Experimental procedure for competitive binding (Ki determination): Perform CisBio's Tag-Lite® Tachykinin NK-1 binding assay according to manufacturer's protocol. […] Incubate 2 h at room temperature, read the Signal665nm and Signal620nm using Evision. Data analysis was performed by calculating the Ratio following the formula below, the competitive binding data for each compound was analyzed with GraphPad Prism 5.0, and IC50 value was calculated for each compound.

[4] = Rat pharmacokinetic study; assay type: in vivo, male Sprague-Dawley rats; details: male, Sprague-Dawley, plasma
Protocol: For rat pharmacokinetic studies, male Sprague-Dawley rats were housed individually and fasted overnight before use. For Compound I and reference compound CP-122721, a single dose was administered to each rat in two groups (n=5/group) via intravenous (i.v.) administration at 4 mg/kg and oral (p.o.) administration of 20 mg/kg, respectively.
The vehicle used for i.v. administration was 10% HP-β-CD. The vehicle used for p.o. administration was 0.5% CMC-Na/0.1% Tween 80 in saline. Blood samples were collected at specified time-points following administration to individual rats within i.v. (pre-dose, 10 min, 0.5 h, 1 h, 2 h, 4 h, 6 h, 8 h, 12 h) and p.o. (pre-dose, 15 min, 0.5 h, 1 h, 2 h, 4 h, 8 h, 12 h, 24 h) group. Blood samples were clotted on ice immediately, plasma samples were then isolated by centrifugation and stored frozen (−80° C.) until further analysis. The concentrations of Compound I and CP-122721 were individually determined by LC/MS/MS assay. Various pharmacokinetic parameters were calculated using Phoenix™ WinNonlin® software. To quantify the bioconversion efficiency of the Compound I and CP-122721 in the circulation system, the bioavailability of Compound I and CP-122721 after p.o. administration was calculated.

[5] = target: human NK-3 receptor (NK-3/HEK293) (Homo sapiens (Human), UniProt P29371); test: NK-3 calcium flux FLIPR antagonist assay; assay type: cell-based; details: for inhibition at 10 µM: HEK293, NK-3, max dose 10000 nM; for pIC50: NK-3 FLIPR antagonist mode
Protocol: as §1, §2, §3, §4

[6] = 1 mg/kg p.o., day 2 (non-significant)
[7] = 1 mg/kg p.o., entire 72 h observation period

human NK-2 receptor (NK-2/HEK293), sequence (P21452 whole entry): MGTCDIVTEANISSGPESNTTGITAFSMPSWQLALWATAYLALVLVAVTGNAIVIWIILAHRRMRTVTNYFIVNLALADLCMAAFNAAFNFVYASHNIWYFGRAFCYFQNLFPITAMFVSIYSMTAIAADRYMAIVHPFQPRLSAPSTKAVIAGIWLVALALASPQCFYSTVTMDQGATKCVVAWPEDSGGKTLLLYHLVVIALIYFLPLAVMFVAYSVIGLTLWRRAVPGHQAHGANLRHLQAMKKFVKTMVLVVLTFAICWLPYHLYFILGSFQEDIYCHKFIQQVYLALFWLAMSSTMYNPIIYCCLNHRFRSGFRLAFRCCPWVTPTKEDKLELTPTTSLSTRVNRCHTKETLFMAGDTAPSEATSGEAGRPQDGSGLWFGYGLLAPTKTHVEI
human NK-3 receptor (NK-3/HEK293), sequence (P29371 whole entry): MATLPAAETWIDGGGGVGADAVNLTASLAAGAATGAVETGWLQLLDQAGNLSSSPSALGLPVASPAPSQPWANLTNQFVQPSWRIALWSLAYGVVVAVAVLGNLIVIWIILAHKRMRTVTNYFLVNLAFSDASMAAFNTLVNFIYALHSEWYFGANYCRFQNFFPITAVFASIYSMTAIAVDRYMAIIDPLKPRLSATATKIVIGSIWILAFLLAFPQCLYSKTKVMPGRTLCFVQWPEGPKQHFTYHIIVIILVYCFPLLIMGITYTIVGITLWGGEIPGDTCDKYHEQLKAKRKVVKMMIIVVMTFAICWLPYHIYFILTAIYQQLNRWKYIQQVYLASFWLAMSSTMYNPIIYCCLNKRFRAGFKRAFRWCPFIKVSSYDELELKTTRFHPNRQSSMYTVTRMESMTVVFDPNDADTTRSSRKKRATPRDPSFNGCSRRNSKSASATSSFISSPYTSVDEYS
human NK-1 receptor (NK-1/HEK293), sequence (P25103 whole entry): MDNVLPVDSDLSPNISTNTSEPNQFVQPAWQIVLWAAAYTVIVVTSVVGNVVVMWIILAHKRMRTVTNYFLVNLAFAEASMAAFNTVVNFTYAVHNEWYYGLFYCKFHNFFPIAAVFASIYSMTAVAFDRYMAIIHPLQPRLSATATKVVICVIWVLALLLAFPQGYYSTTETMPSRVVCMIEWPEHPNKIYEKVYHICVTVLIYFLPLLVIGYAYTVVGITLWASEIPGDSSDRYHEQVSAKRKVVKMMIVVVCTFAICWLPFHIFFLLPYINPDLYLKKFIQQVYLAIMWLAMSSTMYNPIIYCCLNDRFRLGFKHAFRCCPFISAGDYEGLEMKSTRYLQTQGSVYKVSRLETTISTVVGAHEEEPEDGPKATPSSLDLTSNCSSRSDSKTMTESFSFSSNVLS
human NK-1 receptor, sequence (P25103 whole entry): as above

Row | inhibition at 10 µM [1] [%] | pIC50 [1] | inhibition at 10 µM [2] [%] | pIC50 [2] | inhibition at 10 µM [5] [%] | pIC50 [5] | SMILES | reduction of retches+vomits, overall combined acute and delayed response ([3]; 1 mg/kg p.o., 0-72 h) [%] | reduction of retching+vomiting response ([3]; 1 mg/kg p.o., day 1 (acute)) [%] | reduction of retching+vomiting response [3, 6] [%] | reduction of retching+vomiting response ([3]; 1 mg/kg p.o., day 3) [%] | reduction of retching+vomiting, entire delayed phase ([3]; 1 mg/kg p.o.) [%] | reduction of total number of episodes [3, 7] [%] | reduction of total number of retches [3, 7] [%] | reduction of total number of vomits [3, 7] [%] | other results
1 | 15 | < 5.00 | 102 | 8.21 | 26 | < 5.00 | COc1ccc(S(F)(F)(F)(F)F)cc1CN[C@H]1CCCN[C@H]1c1ccccc1 [Compound I, (2S,3S)—N-(2-methoxy-5-(pentafluorosulfanyl)benzyl)-2-phenylpiperidin-3-amine] | 52.2 | 64.5 | 22.7 | 67.5 | 41.3 | 59.0 | 51.3 | 57.3 | reduction of retches+vomits, overall combined acute and delayed response ([3]; 0.1 mg/kg p.o., 0-72 h): 23.9%; reduction of retches ([3]; 0.1 mg/kg p.o., entire 72 h observation period): 21.9%; pIC50 (human NK-1 receptor): 9.19; AUC(0-t) ([4]; iv, 4 mg/kg): 663 ng·h/mL; half-life ([4]; iv, 4 mg/kg): 110 min; bioavailability ([4]; oral, p.o. 20 mg/kg vs i.v. 4 mg/kg): 22.4%; AUC(0-t) ([4]; po, 20 mg/kg): 740 ng·h/mL; Cmax ([4]; po, 20 mg/kg): 202 ng/mL; Tmax ([4]; po, 20 mg/kg): 1.4 h; half-life ([4]; po, 20 mg/kg): 114 min
2 | 1 | < 5.00 | 101 | 7.65 | 29 | < 5.00 | [2H]C([2H])([2H])Oc1ccc(S(F)(F)(F)(F)F)cc1CN[C@H]1CCCN[C@H]1c1ccccc1 [Compound IV, (2S,3S)—N-(2-(methoxy-d3)-5-(pentafluorosulfanyl)benzyl)-2-phenylpiperidin-3-amine] |  |  |  |  |  |  |  |  | 
3 |  |  |  |  |  |  | C[C@@H](O[C@H]1OCCN(Cc2n[nH]c(=O)[nH]2)[C@H]1c1ccc(F)cc1)c1cc(C(F)(F)F)cc(C(F)(F)F)c1 [aprepitant, reference compound] | 67.4 | 76.5 | 46.7 | 73.3 | 59.4 | 64.0 | 67.9 | 64.6 | superiority in reduction of retches+vomits over Compound I 0.1 mg/kg ([3]; aprepitant 1 mg/kg p.o. vs Compound I 0.1 mg/kg, 0-72 h): 43.5%; superiority in reduction of retches over Compound I 0.1 mg/kg ([3]; aprepitant 1 mg/kg p.o. vs Compound I 0.1 mg/kg, 72 h): 46%
